{
  "source": "paper PMC7957705",
  "about": "(Molecules, 2021)",
  "key": {"[1]": {"system": "high-fat diet-induced obese C57BL/6 mice", "assay": "Diet-induced obesity model: food and water intake", "format": "in vivo, mouse", "conditions": "5 and 10 mg/kg i.p. once daily, HFD mice", "procedure": "(§1) Male C57BL/6 mice at 4 weeks of age were provided by BioLasco Taiwan (under Charles River Laboratories Licensee). All animals were maintained in an environment with well-controlled temperature (20–24 °C) and humidity (30–70%) with 12 h light/dark cycles. Free access to standard lab diet (MFG (Oriental Yeast Co., Ltd., Japan)) and autoclaved tap water was granted. […]\n(§2) The protocol was performed for all groups and all animals. […] Body weight was recorded three times weekly from Week 9. Food/water intake was recorded twice weekly from Week 9. […] At the termination in Week 20 (Day 141), the adipose tissue weight, including epididymal, mesenteric, inguinal, retroperitoneal, and brown fat, was measured after the animals were sacrificed. […] The following parameters were measured: (1) body weight three times weekly; (2) food/water intake twice weekly; (3) blood chemistry in Weeks 8 (before dosing), 16 and 20 including glucose, insulin, serum lipids (triglycerides (TG), total cholesterol (TC), AST, alanine aminotransferase (ALT), uric acid, creatinine, potassium and sodium through 16-h fasting animals; and finally, (4) total body fat (including visceral and subcutaneous fat) in Week 20."}, "[2]": {"system": "high-fat diet-induced obese C57BL/6 mice", "conditions": "mouse, in vivo", "procedure": "as §1, §2"}, "[3]": {"system": "high-fat diet-induced obese C57BL/6 mice", "assay": "Diet-induced obesity model: adipose tissue weights", "format": "in vivo, mouse", "procedure": "Male C57BL/6 mice at 4 weeks of age were provided by BioLasco Taiwan (under Charles River Laboratories Licensee). All animals were maintained in an environment with well-controlled temperature (20–24 °C) and humidity (30–70%) with 12 h light/dark cycles. Free access to standard lab diet (MFG (Oriental Yeast Co., Ltd., Japan)) and autoclaved tap water was granted. All aspects of this work including housing, experimentation, and animal disposal were performed in general accordance with the “Guide for the Care and Use of Laboratory Animals: Eighth Edition” (National Academies Press, Washington, D.C., 2011) in our laboratory animal facility accredited by the […]. In addition, the protocol for animal care and use was reviewed and approved by the Institutional Animal Care and Use Committee (IACUC) at Pharmacology Discovery Services Taiwan, Ltd.\nThe protocol was performed for all groups and all animals. Male C57BL/6 mice were fed a high-fat diet (HFD) (60% of calories) or a standard chow diet (STD) from 4 weeks of age. Thirty (30) mice were fed the HFD and 10 mice were fed the STD (for 8 weeks before treatment) for a total of 20 weeks. The mice assigned to the STD diet were maintained on this diet throughout the study as a reference group of lean control mice. From Week 9, HFD-fed mice were grouped by body weight before dosing. Body weight was recorded three times weekly from Week 9. Food/water intake was recorded twice weekly from Week 9. Blood chemistry analyzes were performed in Weeks 8 (before dosing, Day 56), 16 (Day 113) and 20 (Day 141), including serum insulin, total cholesterol (T-CHO), triglyceride (TG), alanine aminotransferase (ALT), aspartate aminotransferase (AST), uric acid (UA), creatinine, potassium (K^+) and sodium (Na^+). At the termination in Week 20 (Day 141), the adipose tissue weight, including epididymal, mesenteric, inguinal, retroperitoneal, and brown fat, was measured after the animals were sacrificed. Two-way ANOVA followed by Bonferroni’s tests were applied to ascertain the difference between vehicle control and treated animals. Significance was set at p < 0.05 level. The following parameters were measured: (1) body weight three times weekly; (2) food/water intake twice weekly; (3) blood chemistry in Weeks 8 (before dosing), 16 and 20 including glucose, insulin, serum lipids (triglycerides (TG), total cholesterol (TC), AST, alanine aminotransferase (ALT), uric acid, creatinine, potassium and sodium through 16-h fasting animals; and finally, (4) total body fat (including visceral and subcutaneous fat) in Week 20."}, "[4]": {"conditions": "5 and 10 mg/kg i.p. once daily for 12 weeks, Week 20 (Day 141)"}},
  "note": "“Also recorded” adds a separate entry of the source. Where a SMILES comes first, the peptide text is derived from it. Bridges are numbered along the chain shown (N, C = ends). Triazole bridges read from a SMILES are 1,4-linked. [ ]: non-standard residue; d: D form. The star is where a group is joined. Benzoyl(4-guanidino) = N=C(N)Nc1ccc(C(=O)*)cc1; Aha = [N-]=[N+]=NCC[C@H](N)C(=O)O; β3hV = CC(C)[C@H](N)CC(=O)O; Nle = CCCC[C@H](N)C(=O)O; Pra = C#CC[C@H](N)C(=O)O",
  "data": [
    {"compound": "CCCC[C@@H]1NC(=O)[C@@H](NC(=O)c2ccc(NC(=N)N)cc2)CCn2cc(nn2)C[C@@H](C(=O)N[C@@H](Cc2c[nH]c3ccccc23)C(=O)O)NC(=O)[C@@H]2CCCN2C(=O)[C@H](CCCNC(=N)N)NC(=O)C[C@H](C(C)C)NC(=O)[C@H](CCCNC(=N)N)NC(=O)[C@H](CC(C)C)NC1=O", "note": "[GPS18169] ({Benzoyl(4-guanidino)}-[Aha][Nle]LR[β3hV]RP[Pra]W-OH; triazole 1-8)", "values": [
      {"measurement": "food intake, treated vs vehicle", "setting": "[1]", "result": "no change"},
      {"measurement": "water intake, treated vs vehicle", "setting": "[1]", "result": "no change"},
      {"measurement": "overt toxicities and behavioral modifications", "setting": "[2]", "result": "Neither overt toxicities nor behavioral modifications were observed"},
      {"measurement": "adipose tissue weight / accumulation", "setting": "[3]; 5 and 10 mg/kg i.p. once daily for 12 weeks", "result": "active in limiting the accumulation of adipose tissues; also recorded: significant decrease"},
      {"measurement": "weight of brown fat", "setting": "[3]; [4]", "result": "significant (p < 0.05) decrease"},
      {"measurement": "weight of inguinal fat", "setting": "[3]; [4]", "result": "significant (p < 0.05) decrease"},
      {"measurement": "weight of mesenteric fat", "setting": "[3]; [4]", "result": "significant (p < 0.05) decrease"},
      {"measurement": "weight of retroperitoneal fat", "setting": "[3]; [4]", "result": "significant (p < 0.05) decrease"},
      {"measurement": "weight ratio of adipose tissue to the whole body", "setting": "[3]; g/100 g of body weight", "result": "constant"}
    ]}
  ]
}
